The target in test [1] is Mitogen-activated protein kinase 14 (Homo sapiens) (UniProt Q16539). The test can be described thus: phospho-p38 level change, either direction, late-stage follow-up, counter-screen for KLF5 inhibitor project, HT29 cells, chemiluminescent western blot, powder samples (AID 588658). The settings on record: HT29 cells, phospho-p38 western blot, 24 h; at 10 µM; stronger effect = higher value. For orientation: Counterscreens check selectivity or assay interference.

Test [2] concerns HT29 cells, phospho-p38 western blot, 24 h. Described as above. Particulars: measured here: phospho-p38 fold change vs DMSO; at 10 µM.

Sequence of Mitogen-activated protein kinase 14 (Homo sapiens) (Q16539 whole entry, looked up): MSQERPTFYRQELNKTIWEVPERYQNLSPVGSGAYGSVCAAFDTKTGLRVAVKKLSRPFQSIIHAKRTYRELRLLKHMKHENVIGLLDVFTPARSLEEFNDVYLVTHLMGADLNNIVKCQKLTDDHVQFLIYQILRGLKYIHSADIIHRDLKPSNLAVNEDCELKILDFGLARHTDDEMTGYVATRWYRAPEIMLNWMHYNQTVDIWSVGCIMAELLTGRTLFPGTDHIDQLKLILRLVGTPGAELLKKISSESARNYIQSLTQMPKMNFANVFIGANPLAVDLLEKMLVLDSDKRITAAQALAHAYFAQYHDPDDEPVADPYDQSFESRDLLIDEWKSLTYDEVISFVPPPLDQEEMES

By inhibition is commonly meant the change of the read-out against control, counted positive when it falls. In the case of `CN(C(=O)CNC(=O)/C=C/c1cccc(Cl)c1)C1CCS(=O)(=O)C1` (stereo unspecified), the inhibition in test [1] is -285%. In test [2], the fold change stood at 3.85.

In the case of `CN(C(=O)COC(=O)/C=C/c1cccc([N+](=O)[O-])c1)C1CCS(=O)(=O)C1` (stereo unspecified), the inhibition in test [1] is -85.3%. In test [2], this molecule had a fold change of 1.85.

On to `CN(C(=O)CNC(=O)/C=C/c1cccc(Cl)c1)C1CCS(=O)(=O)CC1`, for which, in test [1], the inhibition is -293%. This molecule yielded a fold change in test [2] of 3.93.

These data come from PubChem BioAssay AID588658 (The Scripps Research Institute Molecular Screening Center, 2011).
